The record followed here is patent US9598446B2, “Amino compounds for treatment of complement mediated disorders” (priority 2014, dated 2017).

The target of this experiment is Human factor D (Homo sapiens (Human), UniProt P00746). As to the kind of experiment: Human Factor D Assay. The class given is biochemical. The note with it: human factor D 80 nM, substrate Z-L-Lys-SBz1 and DTNB 100 μM each, pH 7.5; read-out: IC50.

A value given as a limit tells only on which side of the number the result lay.

Chain of Human factor D (P00746 26-253): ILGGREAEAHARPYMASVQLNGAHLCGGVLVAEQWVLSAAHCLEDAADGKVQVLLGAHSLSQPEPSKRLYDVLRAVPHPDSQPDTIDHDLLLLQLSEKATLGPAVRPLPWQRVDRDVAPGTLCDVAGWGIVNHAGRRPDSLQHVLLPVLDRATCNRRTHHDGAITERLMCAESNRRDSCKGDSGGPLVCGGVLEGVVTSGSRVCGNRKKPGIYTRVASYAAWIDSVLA
Description: Human factor D (purified from human serum, Complement Technology, Inc.) at 80 nM final concentration is incubated with test compound at various concentrations for 5 minutes at room temperature in 50 mM Tris, 1M NaCl, pH 7.5. A synthetic substrate Z-L-Lys-SBz1 and DTNB (Ellman's reagent) are added to final concentrations of 100 μM each. The increase in color is recorded at OD405 nm in a microplate in kinetic mode over 30 minutes with 30 second time points in a spectrofluorimeter. IC50 values are calculated by non-linear regression from the percentage of inhibition of complement factor D activity as a function of test compound concentration.

In general, IC50 refers to the point on the concentration scale where inhibition reaches its midpoint. Regarding `CC(=O)c1cn(CC(=O)N2C[C@H](F)C[C@H]2C(=O)Nc2ccc3ncsc3c2)c2ccc(Nc3cncnc3)cc12` [Compound 56, (2S,4R)-1-(2-(3-acetyl-5-(pyrimidin-5-ylamino)-1H-indol-1-yl)acetyl)-N-(benzo[d]thiazol-6-yl)-4-fluoropyrrolidine-2-carboxamide], the IC50 is less than 1000 nM.

Regarding `CC(=O)c1cn(CC(=O)N2C[C@H](F)C[C@H]2C(=O)Nc2cc(C)nn2-c2ccccc2F)c2ccc(Nc3cncnc3)cc12` [Compound 57, (2S,4R)-1-(2-(3-acetyl-5-(pyrimidin-5-ylamino)-1H-indol-1-yl)acetyl)-4-fluoro-N-(1-(2-fluorophenyl)-3-methyl-1H-pyrazol-5-yl)pyrrolidine-2-carboxamide], the half-maximal inhibitory concentration (IC50) is less than 1000 nM.

Take `CC(=O)c1cn(CC(=O)N2C[C@H](F)C[C@H]2C(=O)NC2CCCN(c3ccccc3Cl)C2=O)c2ccc(Nc3cncnc3)cc12` (stereo partly drawn) [Compound 58, (2S,4R)-1-(2-(3-acetyl-5-(pyrimidin-5-ylamino)-1H-indol-1-yl)acetyl)-N-(1-(2-chlorophenyl)-2-oxopiperidin-3-yl)-4-fluoropyrrolidine-2-carboxamide]: the IC50 is less than 1000 nM.

Regarding `CC(=O)c1cn(CC(=O)N2C[C@H](F)C[C@H]2C(=O)NCc2ccncc2)c2ccc(Nc3cncnc3)cc12` [Compound 59, (2S,4R)-1-(2-(3-acetyl-5-(pyrimidin-5-ylamino)-1H-indol-1-yl)acetyl)-4-fluoro-N-(pyridin-4-ylmethyl)pyrrolidine-2-carboxamide], the IC50 is less than 1000 nM.

In the case of `CC(=O)c1cn(CC(=O)N2C[C@H](F)C[C@H]2C(=O)Nc2nc(-c3cccc(Cl)c3)ns2)c2ccc(Nc3cncnc3)cc12` [Compound 60, (2S,4R)-1-(2-(3-acetyl-5-(pyrimidin-5-ylamino)-1H-indol-1-yl)acetyl)-N-(3-(3-chlorophenyl)-1,2,4-thiadiazol-5-yl)-4-fluoropyrrolidine-2-carboxamide], the IC50 is greater than 10000 nM.

On to `CC(=O)c1cn(CC(=O)N2C[C@H](F)C[C@H]2C(=O)Nc2ccccc2-c2nncn2C)c2ccc(Nc3cncnc3)cc12` [Compound 61, (2S,4R)-1-(2-(3-acetyl-5-(pyrimidin-5-ylamino)-1H-indol-1-yl)acetyl)-4-fluoro-N-(2-(4-methyl-4H-1,2,4-triazol-3-yl)phenyl)pyrrolidine-2-carboxamide], for which the IC50 was greater than 10000 nM.

In the case of `CC(=O)c1cn(CC(=O)N2C[C@H](F)C[C@H]2C(=O)Nc2noc(-c3ccccc3Cl)n2)c2ccc(Nc3cncnc3)cc12` [Compound 62, (2S,4R)-1-(2-(3-acetyl-5-(pyrimidin-5-ylamino)-1H-indol-1-yl)acetyl)-N-(5-(2-chlorophenyl)-1,2,4-oxadiazol-3-yl)-4-fluoropyrrolidine-2-carboxamide], the IC50 was less than 1000 nM.

As for `CC(=O)c1cn(CC(=O)N2C[C@H](F)C[C@H]2C(=O)NC2CCCN(c3cc(C)ccc3F)C2=O)c2ccc(Nc3cncnc3)cc12` (stereo partly drawn) [Compound 63, (2S,4R)-1-(2-(3-acetyl-5-(pyrimidin-5-ylamino)-1H-indol-1-yl)acetyl)-4-fluoro-N-(1-(2-fluoro-5-methylphenyl)-2-oxopiperidin-3-yl)pyrrolidine-2-carboxamide], the IC50 is less than 1000 nM.

`CC(=O)c1cn(CC(=O)N2C[C@H](F)C[C@H]2C(=O)NC2CCN(c3ccn(C)n3)C2=O)c2ccc(Nc3cncnc3)cc12` (stereo partly drawn) [Compound 64, (2S,4R)-1-(2-(3-acetyl-5-(pyrimidin-5-ylamino)-1H-indol-1-yl)acetyl)-4-fluoro-N-(1-(1-methyl-1H-pyrazol-3-yl)-2-oxopyrrolidin-3-yl)pyrrolidine-2-carboxamide]: the IC50 is less than 1000 nM.

For `CC(=O)c1cn(CC(=O)N2C[C@H](F)C[C@H]2C(=O)Nc2cccc(O)n2)c2ccc(Nc3cncnc3)cc12` [Compound 68, (2S,4R)-1-(2-(3-acetyl-5-(pyrimidin-5-ylamino)-1H-indol-1-yl)acetyl)-4-fluoro-N-(6-hydroxypyridin-2-yl)pyrrolidine-2-carboxamide], the IC50 is less than 1000 nM.
